In ChEMBL document CHEMBL1201862, “PubChem BioAssay data set” (2004):
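Grown in 96-well plates, cells were treated for 48 hours with each compound at five concentrations. Insufficient inhibition: endpoint recorded as highest concentration tested. GI50 is the concentration that inhibits growth by half.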 Active and inactive are the calls of the source. Cut-off read from the data, not from the text of the source: active = GI50 up to about 1.1 µM and inactive = higher.

Experiments:
Test in all cases: growth of human tumour cells (NCI), 48 h
[1] = tested on: CCRF-CEM
[2] = tested on: EKVX
[3] = tested on: HCT-15
[4] = tested on: HOP-62
[5] = tested on: HOP-92
[6] = tested on: HT-29
[7] = tested on: K562
[8] = tested on: LOX IMVI
[9] = tested on: MCF7
[10] = tested on: MDA-MB-231
[11] = tested on: MOLT-4
[12] = tested on: OVCAR-4
[13] = tested on: OVCAR-8
[14] = tested on: RPMI-8226
[15] = tested on: SF-268
[16] = tested on: SF-295
[17] = tested on: SF-539
[18] = tested on: SK-OV-3
[19] = tested on: SN12C
[20] = tested on: T47D

| Compound | GI50 [1] | GI50 [2] | GI50 [3] [µM] | GI50 [4] | GI50 [5] | GI50 [6] | GI50 [7] | GI50 [8] | GI50 [9] | GI50 [10] | GI50 [11] | GI50 [12] | GI50 [13] | GI50 [14] | GI50 [15] | GI50 [16] | GI50 [17] | GI50 [18] | GI50 [19] | GI50 [20] |
| --- | --- | --- | --- | --- | --- | --- | --- | --- | --- | --- | --- | --- | --- | --- | --- | --- | --- | --- | --- | --- |
| COc1ccccc1/C=C/c1nc2ccccc2o1 | > 10 µM (inactive) | > 10 µM (inactive) | > 10 | > 10 µM (inactive) | 6.19 µM (inactive) | > 10 µM (inactive) | > 10 µM (inactive) | > 10 µM (inactive) | > 10 µM (inactive) | > 10 µM (inactive) | > 10 µM (inactive) | > 10 µM (inactive) | > 10 µM (inactive) | > 10 µM (inactive) | > 10 µM (inactive) | > 10 µM (inactive) | > 10 µM (inactive) | > 10 µM (inactive) | > 10 µM (inactive) | > 10 µM (inactive) |
| O=C(NCC(=O)N1CCCC1C(=O)OC(=O)C1CCCN1C(=O)CNC(=O)OCc1ccccc1)OCc1ccccc1 (stereo not given) | 35.9 µM (inactive) | 42.8 µM (inactive) | 38.8 | 26.2 µM (inactive) | 31 µM (inactive) | 24.1 µM (inactive) | 31 µM (inactive) | 17.7 µM (inactive) | 21.1 µM (inactive) | 21.1 µM (inactive) | 16.8 µM (inactive) | 40.6 µM (inactive) | 41.4 µM (inactive) | 21.7 µM (inactive) | 30.4 µM (inactive) | 22.1 µM (inactive) | 24.5 µM (inactive) | > 100 µM (inactive) | 31.8 µM (inactive) | 44.9 µM (inactive) |
| CC(C)(C)[Si](C)(C)OC1CCOC1(O)c1ccccn1 (stereo not given) | 88.3 µM (inactive) | > 100 µM (inactive) | > 100 | > 100 µM (inactive) | > 100 µM (inactive) | > 100 µM (inactive) | 57.9 µM (inactive) | > 100 µM (inactive) | > 100 µM (inactive) | > 100 µM (inactive) | 57.3 µM (inactive) | > 100 µM (inactive) | > 100 µM (inactive) | 53.7 µM (inactive) | > 100 µM (inactive) | > 100 µM (inactive) | > 100 µM (inactive) | > 100 µM (inactive) | > 100 µM (inactive) | > 100 µM (inactive) |
| CCC[C@H](N[S+]([O-])c1ccc(C)cc1)C(C(=O)OCC)=C(c1ccccc1)c1ccccc1 (stereo not given in full) | 26 µM (inactive) | 18.2 µM (inactive) | 25.2 | 19 µM (inactive) | 15.1 µM (inactive) | 13.9 µM (inactive) | 21.3 µM (inactive) | 18.1 µM (inactive) | 16.6 µM (inactive) | 18.7 µM (inactive) | 16.2 µM (inactive) | 16.7 µM (inactive) | 27.4 µM (inactive) | 18.7 µM (inactive) | 30.1 µM (inactive) | 17.8 µM (inactive) | 22.9 µM (inactive) | 24.6 µM (inactive) | 19.8 µM (inactive) | 16.8 µM (inactive) |
| Cc1cc(NC2=CC(=O)C(=O)c3ccccc32)no1 | 9.66 µM (inactive) | 16.1 µM (inactive) | 3.62 | 17.6 µM (inactive) | 16.4 µM (inactive) | 13 µM (inactive) | 3.89 µM (inactive) | 1.84 µM (inactive) | 2.81 µM (inactive) | 2.83 µM (inactive) | 8.57 µM (inactive) | 8.22 µM (inactive) | 6.81 µM (inactive) | 6.05 µM (inactive) | 15.2 µM (inactive) | 9.1 µM (inactive) | 6.4 µM (inactive) | 19.4 µM (inactive) | 2.88 µM (inactive) | 11.9 µM (inactive) |
| C[C@]12C=CC(=O)C=C1CC[C@@H]1[C@@H]2C(=O)C[C@@]2(C)[C@H]1CC[C@]2(O)C(=O)CO [PREDNISONE] | > 100 µM (inactive) | > 100 µM (inactive) | > 100 | > 100 µM (inactive) | > 100 µM (inactive) | > 100 µM (inactive) | > 100 µM (inactive) | > 100 µM (inactive) | > 100 µM (inactive) | > 100 µM (inactive) | > 100 µM (inactive) | > 100 µM (inactive) | > 100 µM (inactive) | > 100 µM (inactive) | > 100 µM (inactive) | > 100 µM (inactive) | > 100 µM (inactive) | > 100 µM (inactive) | > 100 µM (inactive) | > 100 µM (inactive) |
| CCOC(=O)/C=C(/C(=O)OCC)n1ccc(=O)n(Cc2cnnn2CCCCOC(C)=O)c1=O | 2.2 µM (inactive) | 63.8 µM (inactive) | > 10 | > 100 µM (inactive) | 0.0305 µM (active) | > 100 µM (inactive) | 70.1 µM (inactive) | > 100 µM (inactive) | 52 µM (inactive) | > 100 µM (inactive) | 20.4 µM (inactive) | > 100 µM (inactive) | > 100 µM (inactive) | 59.2 µM (inactive) | > 100 µM (inactive) | > 100 µM (inactive) | 36.6 µM (inactive) | > 100 µM (inactive) | > 100 µM (inactive) | > 100 µM (inactive) |
| CCCn1c(C23CC4CC(CC(C4)C2)C3)nc2ccc(Cl)cc2c1=O | 45.5 µM (inactive) | 23.9 µM (inactive) | 45.6 | 23.4 µM (inactive) | 42.8 µM (inactive) | 24.9 µM (inactive) | 43.6 µM (inactive) | 36.6 µM (inactive) | 23.7 µM (inactive) | > 100 µM (inactive) | 33.7 µM (inactive) | 42.2 µM (inactive) | 44.4 µM (inactive) | 28.7 µM (inactive) | > 100 µM (inactive) | 46.6 µM (inactive) | > 100 µM (inactive) | 49.5 µM (inactive) | 35.2 µM (inactive) | 25.8 µM (inactive) |
| CSc1ccc(NC(=O)Nc2cc(C)ccn2)cc1 | > 100 µM (inactive) | > 100 µM (inactive) | > 100 | > 100 µM (inactive) | > 100 µM (inactive) | > 100 µM (inactive) | > 100 µM (inactive) | > 100 µM (inactive) | > 100 µM (inactive) | > 100 µM (inactive) | > 100 µM (inactive) | > 100 µM (inactive) | > 100 µM (inactive) | > 100 µM (inactive) | > 100 µM (inactive) | > 100 µM (inactive) | 2.36 µM (inactive) | > 100 µM (inactive) | > 100 µM (inactive) | > 100 µM (inactive) |
| CSc1ccc(NC(=O)CCl)cc1 | 2.43 µM (inactive) | > 10 µM (inactive) | 5.97 | 3.52 µM (inactive) | 2.63 µM (inactive) | 3.65 µM (inactive) | 3.13 µM (inactive) | 5.15 µM (inactive) | 3.51 µM (inactive) | 7.31 µM (inactive) | 3.4 µM (inactive) | > 10 µM (inactive) | 3.51 µM (inactive) | 3.32 µM (inactive) | > 10 µM (inactive) | 2.58 µM (inactive) | 3.95 µM (inactive) | > 10 µM (inactive) | 6.82 µM (inactive) | > 10 µM (inactive) |
| O=C(O)C(C(=O)O)P(=S)(S)c1ccccc1 (stereo not given) | > 100 µM (inactive) | > 100 µM (inactive) | > 100 | > 100 µM (inactive) | > 100 µM (inactive) | > 100 µM (inactive) | > 100 µM (inactive) | > 100 µM (inactive) | > 100 µM (inactive) | > 100 µM (inactive) | > 30.4 µM (inactive) | > 100 µM (inactive) | > 100 µM (inactive) | > 100 µM (inactive) | > 100 µM (inactive) | > 100 µM (inactive) | > 100 µM (inactive) | > 100 µM (inactive) | > 100 µM (inactive) | > 100 µM (inactive) |
| COc1ccccc1Cn1c2c(c3c(C(=O)NCCN(C)C)c(O)ccc31)C(=O)c1ccccc1C2=O | 0.298 µM (active) | 1.82 µM (inactive) | 1.94 | 1.92 µM (inactive) | 1.17 µM (inactive) | 1.92 µM (inactive) | 0.977 µM (active) | 1.89 µM (inactive) | 1.47 µM (inactive) | 1.99 µM (inactive) | 1.06 µM (active) | 1.65 µM (inactive) | 2.14 µM (inactive) | 0.78 µM (active) | 1.68 µM (inactive) | 1.87 µM (inactive) | 1.9 µM (inactive) | 6.52 µM (inactive) | 1.94 µM (inactive) | 2.16 µM (inactive) |
| Cc1nc(C)c(N2CCN(Cc3ccccc3)CC2)c(O)n1 | > 100 µM (inactive) | > 100 µM (inactive) | > 100 | > 100 µM (inactive) | > 100 µM (inactive) | > 100 µM (inactive) | > 100 µM (inactive) | > 100 µM (inactive) | > 100 µM (inactive) | > 100 µM (inactive) | > 100 µM (inactive) | > 100 µM (inactive) | > 100 µM (inactive) | > 100 µM (inactive) | > 100 µM (inactive) | > 100 µM (inactive) | > 100 µM (inactive) | > 100 µM (inactive) | > 100 µM (inactive) | > 100 µM (inactive) |
| Cc1cccc2c1NC(=O)/C2=N\Nc1ccccc1[N+](=O)[O-] | 6.3 µM (inactive) | 1.58 µM (inactive) | 15.3 | 3.52 µM (inactive) | 2.38 µM (inactive) | 4.35 µM (inactive) | 17.5 µM (inactive) | 3.64 µM (inactive) | 4.6 µM (inactive) | 2.58 µM (inactive) | 21.2 µM (inactive) | 4.05 µM (inactive) | 3.85 µM (inactive) | 10 µM (inactive) | 6.04 µM (inactive) | 4.24 µM (inactive) | 2.12 µM (inactive) | 4.34 µM (inactive) | 9.89 µM (inactive) | 8.83 µM (inactive) |
